Assay results from patent US20050100940A1, “Novel FDRG protein and nucleic acid molecules and uses therefor” (Millennium Pharmaceuticals, Inc., priority 1998, published 2005).

Legend:
[1] = system: Male Zucker diabetic fatty (fa/fa) rats; experiment: Chronic troglitazone treatment of Zucker diabetic fatty rats, Northern blots of white adipose tissue; assay type: in vivo, rat; settings: 6 mg/kg/day in food, after 4 and 20 weeks of treatment
Method: This experiment describes analysis of FDRG mRNA levels in rats following chronic troglitazone treatment to determine if FDRG expresion is regulated by PPARγ in vivo. Male Zucker diabetic fatty (fa/fa) rats were treated with 6 mg/kg/day (1.2% w/v) troglitazone or placebo admixed with food starting at 6 weeks of age and continuing until 26 weeks. […] Northern blots were performed on RNA isolated from white adipose tissue of treated and untreated animals, four from each group, after 4 and 20 weeks of treatment. […] This was true even when normalized to aP2, a fat cell marker. Glut4 mRNA was also found to be elevated, in agreement with published reports by other groups. Ribosomal-associated 36B4 served as a loading control.

[2] = system: lean or ob/ob mice; experiment: Intraperitoneal leptin administration versus pair-fed mice, FDRG expression in brown fat; assay type: in vivo, mouse; settings: 12.5 mg/kg leptin i.p. twice daily
Method: In this study, 10 week old lean or ob/ob mice were divided into three groups. The first group was the control, intraperitoneally injected with 1.5 ml PBS twice daily. […] The third group, the pair-fed group, was diet restricted to match the amount of food intake by the leptin-injected group, and was also injected with PBS. The animals were sacrified at the end of one week. […] That may reflect a fundamental difference in leptin-induced dietary restriction versus externally imposed restriction, or may be consistent with a further downstream effect, e.g., leptin-mediated suppression of FDRG upregulation that would ordinarily result from reduced food intake.

[3] = system: FDRG mRNA in NIH3T3 fibroblasts stably expressing PPARγ; experiment: Northern blot of FDRG mRNA in NIH3T3 fibroblasts stably expressing PPARγ; assay type: cell-based, murine
Method: NIH3T3 fibroblasts stably expressing PPARγ were treated with 10 μg/ml pioglitazone for 0, 2, and 4 hours.

Cc1c(C)c2c(c(C)c1O)CCC(C)(COc1ccc(CC3SC(=O)NC3=O)cc1)O2 (stereo not drawn) [troglitazone]
FDRG expression in vivo, upregulation versus controls [1]: 3-5 fold

leptin: a protein secreted by fat cells, metabolic hormone
Dietary intake [2]: decrease in dietary intake | FDRG expression in brown fat (rise seen with restriction of caloric intake) ([2]; one week, versus pair-fed group): this rise is not seen

C[C@@H]1C[C@@H]([C@H](O)CC2CC(=O)NC(=O)C2)C(=O)[C@@H](C)C1 [cycloheximide]
Effect on FDRG mRNA by itself ([3]; 5 μg/ml cycloheximide alone): causes a rise in FDRG mRNA | Effect of pre-treatment on pioglitazone induction of FDRG mRNA ([3]; pre-treatment with 5 μg/ml cycloheximide, then 10 μg/ml pioglitazone): does not block this induction

CCc1ccc(CCOc2ccc(CC3SC(=O)NC3=O)cc2)nc1 (stereo not drawn) [pioglitazone]
Increase in FDRG mRNA ([3]; 10 μg/ml pioglitazone, within two hours, versus untreated cells): ≥ 10 fold
